Data set [1] is described as follows: In vitro hemolysis on human red blood cells. In kind it is cell-based. Particulars: red blood cells (2% final suspension), % Haemolysis.
In a further data set the test system is P. berghei ANKA. Nature of the data set: Four day suppressive test in P. berghei-infected mice. Format: in vivo, P. berghei (BALB/c mice).
A short description of data set [2]: Experimental complexation with iron. Particulars: ligand–iron(III), stoichiometry 1, text. In kind it is binding.

Structures are written as SMILES.

As to `CCN(CC)CCCC(C)Nc1ccnc2cc(Cl)ccc12` (stereo not shown) [CQ, chloroquine], the hemolysis at 45 min, 1 mM in data set [1] stood at 7.4%. Further, the parasitemia reduction percentage with P. berghei ANKA (20 mg kg^–1, day 4) stood at 99.80%. In the data set on P. berghei ANKA (20 mg kg^–1 for 4 days, day 4 post-infection, n = 6), the “%P, percentage of parasitemia” value amounted to 0.2%. The binding constant entry in data set [2] was “about 6300 M^–1”.

Source of the values: publication PMC8908514 (ACS Omega, 2022).
